# Tests used:
# [1] = system: leukocyte adherence to the vascular endothelium; assay: Aspirin-induced leukocyte adherence to the vascular endothelium, intravital microscopy of mesenteric venules; format: in vivo, rat
# Method: Leukocyte adherence was studied using intravital microscopy, as described in detail previously (Wallace et al., (1993) Am. J. Physiol. 265: 993-998, incorporated hereto by reference). Rats were anesthetized with pentobarbital sodium (60 mg/kg i.p.) and cautery incisions were made along the abdominal region. A tracheotomy was performed to facilitate breathing. The rats were placed in a supine position, and a segment of the mesentery was exteriorized through the abdominal incision. The mesentery was carefully placed over an optically clear viewing pedestal that allowed for trans-illumination of a 2-cm^2 segment of tissue. All exposed tissue was covered with saline-soaked gauze to minimize dehydration. The temperature of the pedestal was kept at 37° C. and the mesentery was superfused with warmed bicarbonate-buffered saline (pH 7.4). An intravital microscope (Nikon L25/0.35) and a ×10 eyepiece were used to observe the mesenteric microcirculation. Post-capillary venules with diameters ranging from 20 to 40 μm were selected for the study. A video camera mounted on the microscope (Panasonic™ digital 5000) projected the image onto a monitor, and the images were recorded for playback analysis using a videocassette recorder. Images of the mesenteric microcirculation were recorded 5 minutes prior to aspirin administration (baseline), at the time of aspirin administration (time 0-5) and every 15 minutes for 60 minutes. Leukocyte adherence was blindly quantified from videotaped images of the vessels made over 5-min periods as the number of leukocytes that remained stationary along the vessel wall for 30 s or more (expressed per 100 μm venule length). Groups of rats (at least 5 in each) were pretreated with Compound XXXV (130 mg/kg), Compound XXVII (100 mg/kg), mesalamine (50 mg/kg), or vehicle 60 min prior to aspirin (or vehicle) administration. These drugs were given intragastrically. In some experiments, rats were treated with glibenclamide (10 mg/kg i.p.) or vehicle 30 min prior to administration of these compounds.
# [2] = system: visceral pain perception in response to colorectal distension; assay: Rat model of visceral pain perception, colorectal distension, abdominal withdrawal reflex score; format: in vivo; settings: for Pain perception score after glibenclamide pretreatment: glibenclamide 10 mg/kg i.p. 30 min before
# Method: A rat model of visceral pain perception, a pre-clinical model of irritable bowel syndrome, was used in the following example. Rats (male, Wistar, 200-250 g, obtained from Charles River, Monza, Italy), were housed in plastic cages and maintained under controlled conditions with 12-hours light/dark cycle with lights on at 7.00 AM. Tap water and standard laboratory chow were freely available. Before experiments, rats were individually trained by spending 2-3 hours per day in a plexiglass cage for 2-3 days. It allowed them to adjust to a movement-restriction environment. Food was withheld for 12 hours before colorectal distension (CRD) recording were performed. Experiments were performed in awake rats and were conducted in a blind manner in that the observer was not aware of the identity of drug administered to each animal.
# In the testing day, rats were sedated with ether inhalation and a 2 cm long latex balloon was inserted intrarectally 2 cm from the anal verge and fixed at the base of the tail. The balloon was connected via a double-barreled cannula to a pressure transducer to continuously monitoring the rectal pressure by a computer (PowerLab PC, A.D. Instruments, Milford, Mass., USA) and to a syringe for inflation/deflation of the balloon. The rats were then housed in a small cage (20×8×8 cm) on an elevated Plexiglas™ platform and allowed to wake up and adapt for 1 hour. After recovery from sedation, animals underwent the CRD procedure and behavioral responses were tested. The night before the experiments, the balloons were inflated and left overnight so the latex stretched and the balloons became compliant.
# CRD of 20 seconds, performed every 5 minutes, was applied in increment of 0.4 ml starting from 0.4 ml up to 1.6 ml water. To achieve an accurate measurement of the colonic parameters and perception, the distensions were repeated twice for each intensity and data for each animal were averaged for analysis. Each animal underwent a double set of CRD. Twenty minutes after the first sequence of CRD (0.4 mL-1.6 ml water), drugs were administered intraperitoneally (i.p.) and a second set of CRD was performed. Behavioral responses during the first and the second set of CRD were assessed and compared.
# Behavioral response to CRD was assessed by measuring the abdominal withdrawal reflex (AWR) using a semiquantitative score (1).
# The effects of mesalamine and Compound XXXV on colonic compliance and sensitivity were determined using a total of 8 fasting rats. To investigate whether the administration of mesalamine and Compound XXXV could revert pain induced by CRD, after the first sequence of CRD, […], after which a second set of CRD was repeated.
# All data are presented as the mean±SEM, with sample sizes of 4 rats/group; statistical comparison of paired data was performed by the Wilcoxon signed rank test. An associated probability (p value) of less that 5% was considered significant.
# [3] = H2S generation in buffer, liver homogenate and liver homogenate with PAG, sulfide sensitive electrode; format: in vitro ADME, rat; settings: 1 mM compound, FIG. 21; for H2S release in buffer: potassium phosphate buffer pH 7.4, 37° C.; for Effect of PAG (DL-propargylglycine) on H2S generation in liver homogenate: PAG 2 mM, inhibitor of cystathionine γ-lyase
# thoracic aorta rings = assay: Vasorelaxant effect on phenylephrine-precontracted thoracic aorta rings; design: species or system CD-1 mice; settings: cumulative 10 nM-3 mM on PE (1 μM) precontracted rings with endothelium; FIG. 22
# Method: CD-1 mice were sacrificed and thoracic aorta was rapidly dissected and cleaned from fat and connective tissue. […] Changes in isometric tension were recorded with PowerLab™ data acquisition system (Ugo Basile, Italy). […] Rings were initially stretched until a resting tension of 1.5 g was reached and allowed to equilibrate for at least 40 minutes during which tension was adjusted, when necessary, to 1.5 g and bathing solution was periodically changed.
# Vehicle represents buffer but no compound. Curves to tested compounds were constructed in presence of endothelium.
# Data obtained are shown in FIG. 22 and are expressed as mean±SEM. The level of statistical significance was determined by 2-way analysis of variance (ANOVA) followed by Bonferroni's test for multiple comparison, using the GraphPad™ software.
# [4] = Viability of HT-29 human colon cancer cells, MTT assay; format: cell-based; settings: HT-29 colon cancer cells, 72 h exposure, HT-29, MTT, read-out: Cell viability rate as a percent of the vehicle (DMSO)-treated cells
# Method: HT-29 cells were grown in culture using standard methods. The cells were exposed to vehicle (DMSO), mesalamine or Compound XXXV. Concentrations ranging from 0.1 to 10 μM were tested, with each concentration tested in 6 wells. At the end of 72 h of exposure to the test drugs, cell viability was measured using the MTT [3-(4,5-dimethylthiaxol-2-yl)-2,5-diphenyltetrazolium bromide] assay (Carmichael et al. (1978) Cancer Res. 47, 936-942), incorporated herein by reference.
# [5] = after patients have taken the usual doses; Dig. Dis. Sci. 1989; 34: 573-578; cited from earlier work
# TNBS-induced colitis = TNBS-induced colitis in mice, disease activity score; format: in vivo; settings: Compound XXVII 100 mg/kg vs mesalamine 50 mg/kg, 4-HTB 50 mg/kg and their mixture; FIG. 5
# Method: (§1) A standard experimental animal model of colitis induced by intracolonic administration of 2,4,6-trinitrobenzene sulfonic acid (TNBS) to mice is used in the following example. A detailed description of this model has been published (Santucci et al. (2003) Gastroenterology 124:1381-94) and is incorporated herein by reference. Briefly, 6-8 week old Balb/c mice were given TNBS intracolonically at a dose of 1.5 mg in 0.1 mL of 30% ethanol. The mice were randomized to the various treatment groups (n=6 per group). Beginning one hour later and continuing every 12 h for 5 days, the mice were treated orally with vehicle (1% carboxymethylcellulose (CMC)), 5-ASA (mesalamine) (25, 50 or 75 mg/kg) or with equimolar doses of 2-hydroxy-5-amino-benzoic acid 4-(thioxo-5H-[1,2]dithiol-3-yl)-phenyl ester hydrochloride (Compound XXXV) (130 mg/kg), or with […] (100 mg/kg), 50% (66 mg/kg) and 25% (33 mg/kg) of that dose. The mice were evaluated (blindly) on the final day of the study for the presence of diarrhea and fecal occult blood, and their body weights were measured. […] After sacrifice, a sample of the colon was excised for measurement of myeloperoxidase (MPO) activity, as a marker of granulocyte infiltration. All results were compared to those obtained with healthy mice as well.
# [6] = system: myeloperoxidase (MPO) activity; assay: TNBS-induced colitis in mice, colonic myeloperoxidase (MPO) activity as marker of granulocyte infiltration; format: in vivo; settings: Compound XXVII 100 mg/kg; FIG. 6
# Method: as §1
# [7] = equimolar doses: mesalamine 50 mg/kg, Compound XXXV 130 mg/kg, ADT-OH 80 mg/kg, Compound XXVII 100 mg/kg, 4-HTB 50 mg/kg, vs vehicle
# [8] = 0.8 mL colorectal distention, 100 mg/kg, FIG. 17
structure (smiles),measurement,setting,value
"COc1ccc(Cl)cc1C(=O)NCCc1ccc(S(=O)(=O)NC(=O)NC2CCCCC2)cc1 [Glibenclamide, glibenclamide, reference compound]",Leukocyte adherence without aspirin,"[1]; glibenclamide alone, 10 mg/kg i.p.",did not affect leukocyte adherence
same,Aspirin-induced leukocyte adherence,"[1]; intragastric pretreatment 60 min prior to aspirin (XXXV 130 mg/kg, mesalamine 50 mg/kg), glibenclamide 10 mg/kg i.p., FIG. 19",did not affect the magnitude of aspirin-induced leukocyte adherence
"NC(=S)c1ccc(O)cc1 [Compound 4-HTB, 4-hydroxythiobenzamide, reference compound]",Pain perception score,[2]; [7],Only Compound XXXV and Compound XXVII significantly reduced pain perception
same,H2S release in buffer,[3],did not release significant H2S
same,"Vasorelaxant effect (% relaxation), concentration dependent, compared to vehicle",thoracic aorta rings,significant vasorelaxant effects
"Oc1ccc(-c2cc(=S)ss2)cc1 [ADT-OH, 5-p-hydroxyphenyl-1,2-dithione-3-thione, reference compound]",Pain perception score,[2]; [7],Only Compound XXXV and Compound XXVII significantly reduced pain perception
same,H2S release in buffer,[3],did not release significant H2S
CC(=N)S [thioacetamide],"Vasorelaxant effect (% relaxation), concentration dependent, compared to vehicle",thoracic aorta rings,significant vasorelaxant effects
"Nc1ccc(O)c(C(=O)O)c1 [Mesalamine, 5-aminosalicylic acid]","viability at 72 h, 0.1 µM",[4]; 0.1 μM,104 ± 2.5%
same,"viability at 72 h, 1 µM",[4]; 1 μM,101 ± 3.5%
same,"viability at 72 h, 10 µM",[4]; 10 μM,91.1 ± 3.2%
same,Pain perception score after glibenclamide pretreatment,[2]; [8],did not affect the pain perception
same,Pain perception score,[2]; [8],no significant effect
same,Pain perception score,[2]; [7],Only Compound XXXV and Compound XXVII significantly reduced pain perception
same,Aspirin-induced leukocyte adherence after glibenclamide pretreatment,"[1]; glibenclamide 10 mg/kg i.p. 30 min prior to the compound, FIG. 19",no effect
same,Concentration in the colonic lumen,[5],up to 5 mM
"NC(=S)c1ccc(OC(=O)c2cc(N)ccc2O)cc1 [Compound XXVII, 5-Amino-2-hydroxy-benzoic acid 4-thiocarbamoyl-phenyl ester]",Disease Activity Index,TNBS-induced colitis,"almost three times as effective as either mesalamine alone, 4-HTB alone or a mixture of mesalamine and 4-HTB"
same,MPO activity (granulocyte infiltration),[6],significantly reduced inflammation
same,Pain perception score after glibenclamide pretreatment,[2]; [8],reversed by pretreatment with glibenclamide
same,Pain perception score,[2]; [8],significantly reduced the pain perception
same,Pain perception score,[2]; [7],significantly reduced pain perception
same,"Aspirin-induced leukocyte adherence, final time period","[1]; minutes 60-65, XXXV 130 mg/kg, XXVII 100 mg/kg intragastric, FIG. 20",suppress aspirin-induced leukocyte adherence
same,"Aspirin-induced leukocyte adherence, final time period, after glibenclamide pretreatment","[1]; minutes 60-65, glibenclamide 10 mg/kg i.p., FIG. 20",reverse this inhibitor effect
same,Effect of PAG (DL-propargylglycine) on H2S generation in liver homogenate,[3],lack of effect
same,H2S release in buffer,[3],release H2S spontaneously (in buffer)
same,H2S release in liver homogenate compared with buffer,[3]; rat liver homogenate 10% (wt/vol),greater when in the presence of tissue
"N[C@@H](CS)C(=O)O [L-cysteine, reference compound]",Effect of PAG (DL-propargylglycine) on H2S generation in liver homogenate,[3],markedly inhibited
same,H2S release in buffer,[3],did not release significant H2S

# — patent US7910568B2, “Derivatives of 4- or 5-aminosalicylic acid” (Antibe Therapeutics Inc., priority 2005, dated 2011)
